Experiments:
[1] = system: 22 NSCLC cell lines; details: growth inhibition assay; cited from earlier work
[2] = system: NSCLC cell lines expressing high levels of IGF-1R (NCI-H2122, A549, NCI-H460); assay: Xenograft growth assessment, NSCLC models with high IGF-1R; type: in vivo, nu/nu mice; details: NCI-H2122, A549, NCI-H460 xenografts; as compared to erlotinib
Method: (§1) When tumors reached a size of ˜300 mm3 (Length*Width*Width*0.5), mice were randomized into treatment groups. […] Tumor weight was determined at termination. […] Mice were sacrificed 24 hr after the final dose.

[3] = system: NSCLC cell lines; assay: Anchorage independent growth (soft agar colony formation) assay in a panel of NSCLC cell lines; type: cell-based, human
Method: (§2) All NSCLC cell lines were obtained from ATCC and maintained in 10% fetal bovine serum, FBS (Hyclone) containing media (DMEM or RPMI; Invitrogen Inc) supplemented with pen-strep (Invitrogen) at 37° C. according to the instructions from ATCC.
Soft agar assays were conducted in 96 well glass bottom plates (MATRICAL). Cells were seeded at a concentration of 3,000-9,000 cells per WELL in 100 μl RPMI 1640 (INVITROGEN) supplemented with 14% FBS and 0.3% (w/v) […] Agarose (Lonza Rockland, Inc) on top of a bottom layer of consisting of the same culture media supplemented with 0.8% agarose. […] Cells were incubated for 7-14 days before staining overnight with LAVA CELL(Active Motif). Colonies were quantified using an ISOCYTE laser scanning cytometer.

[4] = system: xenograft models with low levels of IGF-1R expression (SKMES & NCI-H520); assay: Xenograft growth assessment, NSCLC models with low IGF-1R; type: in vivo, nu/nu mice; details: SKMES & NCI-H520 xenografts
Method: as §1

[5] = system: Colo699 cell line; assay: Anchorage independent growth (soft agar) assay, Colo699; type: cell-based, human; details: LKB1-high cell line; IGF-1 over-expression
Method: as §2
Soft agar assays were conducted in 96 well glass bottom plates (MATRICAL). Cells were seeded at a concentration of 3,000-9,000 cells per WELL in 100 μl RPMI 1640 (INVITROGEN) supplemented with 14% FBS and 0.3% (w/v) […] Agarose (Lonza Rockland, Inc) on top of a bottom layer of consisting of the same culture media supplemented with 0.8% agarose. Compounds were added in 100μl of culture media supplemented after agarose had solidified. Cells were incubated for 7-14 days before staining overnight with LAVA CELL(Active Motif). Colonies were quantified using an ISOCYTE laser scanning cytometer.

Row | Substance | sensitivity of NSCLC cell lines to R1507 [1] | xenograft sensitivity [2] | sensitivity (anchorage independent growth inhibition) of NSCLC cell lines expressing high levels of IGF-1R ([3]; 26 NSCLC cell lines, MK-0646 10 ug/ml, erlotinib 1 uM, IGF-1R high cell lines) | sensitivity in IGF-1R high cell lines expressing low levels of LKB1 ([3]; IGF-1R and LKB1 protein by RPPA) | MK-0646 sensitivity in LKB1-low cell lines ([3]; LKB1 protein not detectable by western blot (LKB1-low; n=11)) | xenograft sensitivity [4] | sensitivity of Colo699 cell line [5]
1 | R1507: fully human IgG1 monoclonal antibody directed against the extracellular portion of the human IGF-1R | none of the lines displayed “high sensitivity” | – | – | – | – | – | –
2 | MK-0646: humanized antibody characterized as binding IGF-1R as well as the IR/IGF-1 hybrid receptor; described in U.S. Pat. No. 7,241,444 | – | significant sensitivity | more sensitive | enriched | significantly enriched | did not show sensitivity | very sensitive
